Literature values, collected in patent US4906471A (priority 1989, dated 1990).

Tests used:
[1] = tested on: trasient ischemic attacks; settings: in men; prior art statement

Compound: CC(=O)Oc1ccccc1C(=O)O [Aspirin]
- side effects at higher doses (patients): tinnitus, decreased hearing and vertigo
- side effects at usual dosage (patients; usual dosage, prior art statement): gastric intolerance
- incidence of transient ischemic attacks [1]: decrease the incidence of trasient ischemic attacks

Compound: colestipol
- side effects / toxic effects (patients): constipation and bloating sensation; some times hearburn and diarrhea

Compound: Neomycin
- side effects / toxic effects (patients): high toxicity
- side effects at low doses (patients): nausea, abdonimal cramps, diarrhea and malabsorption
